# Assay results: patent US8163793B2, “Proline derivatives” (Hoffman-La Roche Inc., priority 2009, dated 2012)
# Like-named read-outs stand apart in the source and are kept apart here.
# Tests used:
# Cathepsin S = Cathepsin S (UniProt P25774); assay: Cathepsin enzyme inhibition assay (fluorogenic peptide substrate Z-Val-Val-Arg-AMC), Cathepsin S; assay type: biochemical, human and mouse
# How it was run: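 Human or mouse cathepsin S (1 nM) was run in 100 mM potassium phosphate pH 6.5 with 5 mM EDTA, 0.001% Triton X-100 and 5 mM DTT. The rise in AMC fluorescence from cleavage was measured, and IC50 values were calculated by standard methods and expressed in μM.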
# Cat L = Cat L (UniProt P07711); assay: Cathepsin enzyme inhibition assay (fluorogenic peptide substrate Z-Val-Val-Arg-AMC), Cathepsin L; assay type: biochemical, human and mouse
# How it was run: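 Cathepsin L at 1 nM was mixed with compound, then started with 20 μM Z-Val-Val-Arg-AMC in pH 6.5 potassium phosphate with EDTA, Triton X-100 and 5 mM DTT. AMC fluorescence (ex 360/em 465 nm) was followed over 20 min. IC50 is given in μM.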
# [1] = enzyme 1 nM, substrate 20 μM, pH 6.5; read-out: CatS IC50
# [2] = enzyme 1 nM, substrate 20 μM, pH 6.5; read-out: CatL IC50
SMILES,IC50 (Cathepsin S; [1]) [nM],IC50 (Cat L; [2]) [nM],"IC50 (Cathepsin S; read-out: CatS IC50; enzyme 1 nM, substrate 20 μM, pH 6.5) [nM]","IC50 (Cat L; read-out: CatL IC50; enzyme 1 nM, substrate 20 μM, pH 6.5) [nM]"
"Cc1cc(-c2ccc(S(=O)(=O)[C@@H]3C[C@@H](C(=O)NC4(C#N)CC4)N(C(=O)C4(C(F)(F)F)CC4)C3)c(C(F)(F)F)c2)ccn1 [Example 248, (2S,4R)-4-[4-(2-Methyl-pyridin-4-yl)-2-trifluoromethyl-benzenesulfonyl]-1-(1-trifluoromethyl-cyclopropanecarbonyl)-pyrrolidine-2-carboxylic acid (1-cyano-cyclopropyl)-amide]",,,0.55,54700
"N#CC1(NC(=O)[C@@H]2C[C@@H](S(=O)(=O)CC3CC3)CN2C(=O)C2(c3ccc(Cl)cc3)CC2)CC1 [Example 424, (2S,4R)-1-[1-(4-Chloro-phenyl)-cyclopropanecarbonyl]-4-cyclopropylmethanesulfonyl-pyrrolidine-2-carboxylic acid (1-cyano-cyclopropyl)-amide]",410,≥ 25000,,
"Cc1cc(N2C[C@H](S(=O)(=O)c3ccccc3)C[C@H]2C(=O)NC2(C#N)CC2)n(-c2ccnc(Cl)c2)n1 [Example 262, (2S,4R)-4-Benzenesulfonyl-1-[2-(2-chloro-pyridin-4-yl)-5-methyl-2H-pyrazol-3-yl]-pyrrolidine-2-carboxylic acid (1-cyano-cyclopropyl)-amide]",4.4,28700,,
"Cc1cc(N2C[C@H](S(=O)(=O)c3ccc(F)cc3C(F)(F)F)C[C@H]2C(=O)NC2(C#N)CC2)n(-c2ccnc(Cl)c2)n1 [Example 266, (2S,4R)-1-[2-(2-Chloro-pyridin-4-yl)-5-methyl-2H-pyrazol-3-yl]-4-(4-fluoro-2-trifluoromethyl-benzenesulfonyl)-pyrrolidine-2-carboxylic acid (1-cyano-cyclopropyl)-amide]",1.3,22100,,
"Cc1cc(N2C[C@H](S(=O)(=O)c3ccc(OCC(F)(F)F)cc3Cl)C[C@H]2C(=O)NC2(C#N)CC2)n(CCc2ccccc2)n1 [Example 484, (2S,4R)-4-[2-Chloro-4-(2,2,2-trifluoro-ethoxy)-benzenesulfonyl]-1-(5-methyl-2-phenethyl-2H-pyrazol-3-yl)-pyrrolidine-2-carboxylic acid (1-cyano-cyclopropyl)-amide]",3.31,1550,,
"C=CCOc1ccccc1S(=O)(=O)[C@@H]1C[C@@H](C(=O)NC2(C#N)CC2)N(C(=O)OC(C)(C)C)C1 [Example 450, (2S,4R)-4-(2-Allyloxy-benzenesulfonyl)-2-(1-cyano-cyclopropylcarbamoyl)-pyrrolidine-1-carboxylic acid tert-butyl ester]",675,≥ 25000,,
"Cc1cc(N2C[C@H](S(=O)(=O)c3ccccc3Cl)C[C@H]2C(=O)NC2(C#N)CC2)n(-c2ccnc(Cl)c2)n1 [Example 254, (2S,4R)-4-(2-Chloro-benzenesulfonyl)-1-[2-(2-chloro-pyridin-4-yl)-5-methyl-2H-pyrazol-3-yl]-pyrrolidine-2-carboxylic acid (1-cyano-cyclopropyl)-amide]",0.83,2260,,
"N#CCNC(=O)[C@@H]1C[C@@H](S(=O)(=O)c2ccccc2C(F)(F)F)CN1C(=O)OC1CCCC1 [Example 72, (2S,4R)-2-(Cyanomethyl-carbamoyl)-4-(2-trifluoromethyl-benzenesulfonyl)-pyrrolidine-1-carboxylic acid Cyclopentyl Ester]",0.8,≥ 25000,,
"CC(C)(C)OC(=O)N1C[C@H](S(=O)(=O)c2ccc(OCCN3CCCCC3)cc2Cl)C[C@H]1C(=O)NC1(C#N)CC1 [Example 139, (2S,4R)-4-[2-Chloro-4-(2-piperidin-1-yl-ethoxy)-benzenesulfonyl]-2-(1-cyano-cyclopropylcarbamoyl)-pyrrolidine-1-carboxylic acid tert.-butyl ester]",7.8,≥ 25000,,
"N#CC1(NC(=O)[C@@H]2C[C@@H](S(=O)(=O)c3ccccc3Cl)CN2CC(F)F)CC1 [Example 88, (2S,4R)-4-(2-Chloro-benzenesulfonyl)-1-(2,2-difluoro-ethyl)-pyrrolidine-2-carboxylic acid (1-cyano-cyclopropyl)-amide]",275,≥ 25000,,
"CC(C)(C)OC(=O)N1C[C@H](S(=O)(=O)c2ccc(-n3cnc4ccccc43)cc2C(F)(F)F)C[C@H]1C(=O)NC1(C#N)CC1 [Example 9, (2S,4R)-4-(4-Benzoimidazol-1-yl-2-trifluoromethyl-benzenesulfonyl)-2-(1-cyano-cyclopropylcarbamoyl)-pyrrolidine-1-carboxylic acid tert-butyl ester]",0.6,≥ 25000,,
"CC(C)CS(=O)(=O)[C@@H]1C[C@@H](C(=O)NC2(C#N)CC2)N(C(=O)OC(C)(C)C)C1 [Example 113, (2S,4R)-2-(1-Cyano-cyclopropylcarbamoyl)-4-(2-methyl-propane-1-sulfonyl)-pyrrolidine-1-carboxylic acid tert-butyl ester]",3130,≥ 25000,,
"N#CC1(NC(=O)[C@@H]2C[C@@H](S(=O)(=O)c3ccc(Cl)cc3Cl)CN2c2ncccc2C(F)(F)F)CC1 [Example 188, (2S,4R)-4-(2,4-Dichloro-benzenesulfonyl)-1-(3-trifluoromethyl-pyridin-2-yl)-pyrrolidine-2-carboxylic acid (1-cyano-cyclopropyl)-amide]",6.4,16700,,

# Continued by falling IC50 (Cathepsin S; [1]), values first:
IC50 (Cathepsin S; [1]) [nM],IC50 (Cat L; [2]) [nM],SMILES,"IC50 (Cathepsin S; read-out: CatS IC50; enzyme 1 nM, substrate 20 μM, pH 6.5) [nM]","IC50 (Cat L; read-out: CatL IC50; enzyme 1 nM, substrate 20 μM, pH 6.5) [nM]"
0.6,≥ 25000,"N#CC1(NC(=O)[C@@H]2C[C@@H](S(=O)(=O)c3ccccc3C(F)(F)F)CN2c2ccccc2[N+](=O)[O-])CC1 [Example 166, (2S,4R)-1-(2-Nitro-phenyl)-4-(2-trifluoromethyl-benzenesulfonyl)-pyrrolidine-2-carboxylic Acid (1-cyano-cyclopropyl)-amide]",,
0.484,≥ 25000,"N#CC1(NC(=O)[C@@H]2C[C@@H](S(=O)(=O)c3ccccc3C(F)(F)F)CN2c2nnc(C(F)(F)F)s2)CC1 [Example 335, (2S,4R)-4-(2-Trifluoromethyl-benzenesulfonyl)-1-(5-trifluoromethyl-[1,3,4]thiadiazol-2-yl)-pyrrolidine-2-carboxylic acid (1-cyano-cyclopropyl)-amide]",,
0.3,41400,"Cc1cc(N2C[C@H](S(=O)(=O)c3ccccc3C(F)(F)F)C[C@H]2C(=O)NC2(C#N)CC2)n(-c2cc[nH]c(=O)c2)n1 [Example 196, (2S,4R)-1-[5-Methyl-2-(2-oxo-1,2-dihydro-pyridin-4-yl)-2H-pyrazol-3-yl]-4-(2-trifluoromethyl-benzenesulfonyl)-pyrrolidine-2-carboxylic acid (1-cyano-cyclopropyl)-amide]",,
0.28,145,"N#CC1(NC(=O)[C@@H]2C[C@@H](S(=O)(=O)c3ccccc3Cl)CN2C(=O)C2(c3ccc(OC(F)(F)F)cc3)CC2)CC1 [Example 281, (2S,4R)-4-(2-Chloro-benzenesulfonyl)-1-[1-(4-trifluoromethoxy-phenyl)-cyclopropanecarbonyl]-pyrrolidine-2-carboxylic acid (1-cyano-cyclopropyl)-amide]",,
0.2,28500,"Cc1cc(N2C[C@H](S(=O)(=O)c3ccccc3C(F)(F)F)C[C@H]2C(=O)NC2(C#N)CC2)n(-c2ccnc(Cl)c2)n1 [Example 193, (2S,4R)-1-[2-(2-Chloro-pyridin-4-yl)-5-methyl-2H-pyrazol-3-yl]-4-(2-trifluoromethyl-benzenesulfonyl)-pyrrolidine-2-carboxylic acid (1-cyano-cyclopropyl)-amide]",,
0.2,72000,"N#CC1(NC(=O)[C@@H]2C[C@@H](S(=O)(=O)c3ccccc3C(F)(F)F)CN2C(=O)C2(C(F)(F)F)CC2)CC1 [Example 205, (2S,4R)-4-(2-Trifluoromethyl-benzenesulfonyl)-1-(1-trifluoromethyl-cyclopropanecarbonyl)-pyrrolidine-2-carboxylic acid (1-cyano-cyclopropyl)-amide]",,
0.175,3170,"N#CC1(NC(=O)[C@@H]2C[C@@H](S(=O)(=O)c3ccc(OCC(F)(F)F)cc3Cl)CN2C(=O)C2(c3ccccc3)CCOCC2)CC1 [Example 287, (2S,4R)-4-[2-Chloro-4-(2,2,2-trifluoro-ethoxy)-benzenesulfonyl]-1-(4-phenyl-tetrahydro-pyran-4-carbonyl)-pyrrolidine-2-carboxylic acid (1-cyano-cyclopropyl)-amide]",,
0.09,590,"N#CC1(NC(=O)[C@@H]2C[C@@H](S(=O)(=O)c3ccc(OCC(F)(F)F)cc3Cl)CN2C(=O)C2(c3ccccc3)CC2)CC1 [Example 240, (2S,4R)-4-[2-Chloro-4-(2,2,2-trifluoro-ethoxy)-benzenesulfonyl]-1-(1-phenyl-cyclopropanecarbonyl)-pyrrolidine-2-carboxylic acid (1-cyano-cyclopropyl)-amide]",,
0.08,84,"N#CC1(NC(=O)[C@@H]2C[C@@H](S(=O)(=O)c3ccc(OCC(F)(F)F)cc3Cl)CN2C(=O)C2(c3ccc(Cl)c(Cl)c3)CC2)CC1 [Example 239, (2S,4R)-4-[2-Chloro-4-(2,2,2-trifluoro-ethoxy)-benzenesulfonyl]-1-[1-(3,4-dichloro-phenyl)-cyclopropanecarbonyl]-pyrrolidine-2-carboxylic acid (1-cyano-cyclopropyl)-amide]",,
0.003,2750,"N#CC1(NC(=O)[C@@H]2C[C@@H](S(=O)(=O)c3ccc(OCC(F)(F)F)cc3Cl)CN2C(=O)C2(c3ccc(Cl)cc3)CCC2)CC1 [Example 278, (2S,4R)-1-[1-(4-Chloro-phenyl)-cyclobutanecarbonyl]-4-[2-chloro-4-(2,2,2-trifluoro-ethoxy)-benzenesulfonyl]-pyrrolidine-2-carboxylic acid (1-cyano-cyclopropyl)-amide]",,
